Experiment [1] addresses Epidermal growth factor receptor (Homo sapiens, UniProt P00533). In words: Inhibition of EGFR (unknown origin) by ADP-Glo kinase assay.
The subject of experiment [2] is L02. As to the kind of experiment: Cytotoxicity against human L02 cells assessed as inhibition of cell growth measured by CCK8 assay. It counts as functional, cell-based.
Experiment [3] is described as follows: Cytotoxicity against human HBE cells assessed as inhibition of cell growth measured by CCK8 assay. The experiment is classed as ADME, cell-based.
In experiment [4] the test system is Mus musculus. In words: Antifibrotic activity in C57BL mouse model of BLM-induced lung fibrosis assessed as reduction in alveolar wall thickness by measuring lung coefficient at 60 mg/kg by hematoxylin and eosin staining based assay (reference value: 12.89 +/- 2.52 g). The experiment is classed as functional.
Experiment [5] deals with Mus musculus. In words: Antifibrotic activity in C57BL mouse model of BLM-induced lung fibrosis assessed as reduction in infiltration of inflammatory cells at 60 mg/kg by hematoxylin and eosin staining based assay. It counts as functional, organism-based.
The subject of experiment [6] is Mus musculus. In words: Antifibrotic activity in C57BL mouse model of BLM-induced lung fibrosis assessed as reduction in collagen deposition in the lung at 60 mg/kg by masson staining method. The experiment is classed as functional, organism-based.
For experiment [7], the system named is Mus musculus. In words: Antifibrotic activity in C57BL mouse model of BLM-induced lung fibrosis assessed as HYP level at 60 mg/kg (reference value: 5.31 +/- 0.79 ug/mg). It counts as functional.
In experiment [8] the test system is Mus musculus. As to the kind of experiment: Antifibrotic activity in C57BL mouse model of BLM-induced lung fibrosis assessed as MDA content at 60 mg/kg measured after 14 days (reference value: 9.93 +/- 1.41 nmol/ml). The experiment is classed as functional. Particulars: time 14 day.
For experiment [9], the system named is Mus musculus. In words: Antifibrotic activity in C57BL mouse model of BLM-induced lung fibrosis assessed as IL-4 level in blood at 60 mg/kg measured after 14 days by flow cytometry (reference value: 2.72 +/- 0.14 pg/ml). Particulars: time 14 day. It counts as functional.
Experiment [10] has as its system Mus musculus. In words: Antifibrotic activity in C57BL mouse model of BLM-induced lung fibrosis assessed as IL-6 level in blood at 60 mg/kg measured after 14 days by flow cytometry (reference value: 2.36 +/- 0.16 pg/ml). It counts as functional. Particulars: time 14 day.
The subject of experiment [11] is Mus musculus. As to the kind of experiment: Antifibrotic activity in C57BL mouse model of BLM-induced lung fibrosis assessed as TNF-alpha level in blood at 60 mg/kg measured after 14 days by flow cytometry (reference value: 3.12 +/- 0.11 pg/ml). It counts as functional. Particulars: time 14 day.

The source made the active and inactive calls. The rule behind the calls is not given here.

Among the data in ChEMBL document CHEMBL4825706, “Synthesis and biological evaluation of selenogefitinib for reducing bleomycin-induced pulmonary fibrosis” (Bioorg Med Chem Lett, 2021) are IC50 and Activity values, retold here.

Sequence of Epidermal growth factor receptor (P00533 whole entry): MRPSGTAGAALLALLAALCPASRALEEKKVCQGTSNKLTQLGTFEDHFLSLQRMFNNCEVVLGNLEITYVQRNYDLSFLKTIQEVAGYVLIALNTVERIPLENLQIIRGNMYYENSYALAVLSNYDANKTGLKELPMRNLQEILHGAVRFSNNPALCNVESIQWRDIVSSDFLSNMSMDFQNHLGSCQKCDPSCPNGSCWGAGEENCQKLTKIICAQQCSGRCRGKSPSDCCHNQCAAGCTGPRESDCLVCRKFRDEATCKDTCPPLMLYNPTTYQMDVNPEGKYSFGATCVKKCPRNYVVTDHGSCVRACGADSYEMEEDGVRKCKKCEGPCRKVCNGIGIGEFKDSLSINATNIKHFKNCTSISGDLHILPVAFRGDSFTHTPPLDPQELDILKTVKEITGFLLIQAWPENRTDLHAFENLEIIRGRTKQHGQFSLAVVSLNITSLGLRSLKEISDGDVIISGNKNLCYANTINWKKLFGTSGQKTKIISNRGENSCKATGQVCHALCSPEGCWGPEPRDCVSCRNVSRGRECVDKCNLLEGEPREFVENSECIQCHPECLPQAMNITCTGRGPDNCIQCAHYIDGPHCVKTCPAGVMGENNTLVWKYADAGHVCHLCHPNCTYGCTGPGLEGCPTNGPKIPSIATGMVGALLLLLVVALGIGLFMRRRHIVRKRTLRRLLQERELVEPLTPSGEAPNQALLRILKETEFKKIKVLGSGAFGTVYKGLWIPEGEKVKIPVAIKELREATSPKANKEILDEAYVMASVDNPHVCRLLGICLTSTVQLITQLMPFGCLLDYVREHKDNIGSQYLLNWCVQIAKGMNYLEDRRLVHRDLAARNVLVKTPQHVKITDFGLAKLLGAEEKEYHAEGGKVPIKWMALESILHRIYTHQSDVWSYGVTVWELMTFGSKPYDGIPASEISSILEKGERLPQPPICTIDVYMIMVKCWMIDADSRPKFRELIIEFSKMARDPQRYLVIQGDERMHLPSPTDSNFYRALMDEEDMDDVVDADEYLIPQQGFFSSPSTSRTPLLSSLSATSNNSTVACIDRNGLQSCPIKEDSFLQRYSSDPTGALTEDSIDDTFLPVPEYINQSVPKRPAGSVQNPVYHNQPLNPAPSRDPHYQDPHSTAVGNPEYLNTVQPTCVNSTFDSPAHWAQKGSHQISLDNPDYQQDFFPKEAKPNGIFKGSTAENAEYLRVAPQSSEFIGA

`COc1cc2ncnc(Nc3ccc(F)c(Cl)c3)c2cc1OCCCN1CC[Se]CC1`: the figures for the concentration for half-maximal inhibition (IC50) in [1], in [2] and in [3] were 0.0253 µM, 13.8 µM and 21.8 µM, respectively. Also, the Activity was found to be 7.56 g in experiment [4]; 3.01 µg/mg in experiment [7]; 6.13 nmol/mL in experiment [8]; 1.72 pg/mL in experiment [9]; 1 pg/mL in experiment [10]; 1.56 pg/mL in experiment [11]. Also, the result in experiment [5] and in experiment [6] was Active.
With `COc1cc2ncnc(Nc3ccc(F)c(Cl)c3)c2cc1OCCCN1CCOCC1` [GEFITINIB], the Activity in experiment [4] came out at 9.7 g; in experiment [7] it was 3.39 µg/mg; in experiment [8] it was 8.92 nmol/mL; in [9], 2.17 pg/mL; in [10], 1.77 pg/mL; in [11], 2.39 pg/mL. For the same molecule, in [6], the result was Active.
